According to article PMC3935609 (Biochemistry, 2013):

Assays:
[1] = target: T1, GLIC (Gloeobacter violaceus ligand-gated ion channel) (Gloeobacter violaceus, UniProt Q7NDN8); assay: [3H]AziPm photoaffinity labeling of purified GLIC at pH […] with Edman sequencing; format: cell-based
T1 sequence (Q7NDN8 44-359): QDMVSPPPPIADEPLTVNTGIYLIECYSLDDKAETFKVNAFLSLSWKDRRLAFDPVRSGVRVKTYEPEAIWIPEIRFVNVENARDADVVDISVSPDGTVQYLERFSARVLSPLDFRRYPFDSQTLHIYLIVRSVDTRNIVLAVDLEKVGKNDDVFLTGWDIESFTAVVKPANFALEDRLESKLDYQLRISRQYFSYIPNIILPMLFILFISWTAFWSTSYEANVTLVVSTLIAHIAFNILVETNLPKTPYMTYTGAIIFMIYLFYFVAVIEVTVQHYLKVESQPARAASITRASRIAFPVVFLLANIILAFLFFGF

[2] = target: T1, GLIC (Gloeobacter violaceus ligand-gated ion channel); assay: competition; format: cell-based

| SMILES | IC50 [1] [µM] | IC50 [2] [µM] |
| --- | --- | --- |
| CC(C)c1ccc(C2(C(F)(F)F)N=N2)cc1O [AziPm, 2-isopropyl-5-[3-(trifluoromethyl)-3H-diazirin-3-yl]phenol] | 51.4 ± 5.3 | – |
| CC(C)c1cccc(C(C)C)c1O [PPF, Propofol] | – | 21.4 ± 1.2 |
